Experimental data from EP2927685A1, “Suitable hepatocytes for in-vitro hepatitis tests” (Medicyte GmbH, priority 2014, dated 2015).
Read-outs that look alike come from different tables or passages of the source.

Experiments:
[1] = test system: differentiated hepatocytes; experiment: Apoptosis quantification by TUNEL
[2] = test system: primary human hepatocyte transduced with HPV E6 and E7 genes
[3] = test system: differentiated hepatocytes; conditions: human, 48 h
[4] = test system: differentiated hepatocytes; experiment: Intrahepatic cholestasis: bile secretion by CDFDA staining; type: cell-based, human; conditions: 24 hours of exposure, compared to melatonin
[5] = test system: CYP3A4/5, 2E1, 2B6 and 1A1; experiment: Cytochrome P450 inhibition in differentiated hepatocytes; type: in vitro ADME, human; conditions: after 30 min of incubation, 200 µM naringenin
CYP450 = conditions: human, hepatocytes, 72 h, 200 µM
CYP1A1 = experiment: Cytochrome P450 induction in differentiated hepatocytes (CYP1A1); type: in vitro ADME, human; conditions: 50 µM omeprazole, normalized to vehicle-only controls

COc1ccc2[nH]cc(CCNC(C)=O)c2c1 [melatonin]
Percent apoptosis (positive nuclei) ([1]; differentiated hepatocytes exposed for 24 hours to TC20 values, TUNEL): 4%

N#CC(=C(/N)Sc1ccccc1N)/C(C#N)=C(\N)Sc1ccccc1N [U0126]
epithelial phenotype of the cells [2]: stable E-Cadherin positive epithelial phenotype

CC(=O)Oc1ccccc1C(=O)O [acetylsalicylic acid]
increase in intracellular lipids compared to control [3]: 33-47%

CN(C)CCCN1c2ccccc2Sc2ccc(Cl)cc21 [chlorpromazine]
bile secretion (measure of intrahepatic cholestasis) [4]: loss of bile secretion function

Cc1c(C)c2c(c(C)c1O)CCC(C)(COc1ccc(CC3SC(=O)NC3=O)cc1)O2 (stereo not drawn) [troglitazone]
bile secretion (measure of intrahepatic cholestasis) [4]: loss of bile secretion function

O=C1C[C@@H](c2ccc(O)cc2)Oc2cc(O)cc(O)c21 [naringenin]
inhibition of CYP3A4/5, 2E1, 2B6 and 1A1 [5]: drastically inhibited
increase in CYP450 activity compared with vehicle-treated cells (CYP450): 5-7 fold

aflatoxin B1
Percent apoptosis (positive nuclei) [1]: 23%

COc1ccc2[nH]c([S+]([O-])Cc3ncc(C)c(OC)c3C)nc2c1 (stereo not drawn) [omeprazole]
CYP1A1 increased by stimulation (CYP1A1): 10 folds
